According to PubChem BioAssay (NCI):
Where “and” joins values, the source holds several entries; their conditions need not be identical. Identical values can stand only once.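 Protocol summary: plate cells (96-well), add compound at 5 concentrations, incubate 48 h, interpolate endpoints linearly. Here, GI50 denotes the concentration required for 50% inhibition of growth. TGI marks complete inhibition of growth.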

Experiments:
Assay in all cases: DTP human tumour cell line panel, 48 h
COLO 205 colon = test system: COLO 205 colon
HL-60(TB) leukemia = test system: HL-60(TB) leukemia
HT29 colon = test system: HT29 colon
MALME-3M melanoma = test system: MALME-3M melanoma
NCI-H460 lung = test system: NCI-H460 lung
NCI-H522 lung = test system: NCI-H522 lung
PC-3 prostate = test system: PC-3 prostate
RXF 393 renal = test system: RXF 393 renal
SNB-19 CNS = test system: SNB-19 CNS
SR leukemia = test system: SR leukemia

Compound	GI50 (COLO 205 colon)	TGI (COLO 205 colon)	GI50 (HL-60(TB) leukemia)	TGI (HL-60(TB) leukemia)	GI50 (HT29 colon)	TGI (HT29 colon)	GI50 (MALME-3M melanoma)	TGI (MALME-3M melanoma) [µM]	GI50 (NCI-H460 lung)	TGI (NCI-H460 lung) [µM]	GI50 (NCI-H522 lung)	TGI (NCI-H522 lung)	GI50 (PC-3 prostate)	TGI (PC-3 prostate) [µM]	GI50 (RXF 393 renal) [µM]	TGI (RXF 393 renal) [µM]	GI50 (SNB-19 CNS)	TGI (SNB-19 CNS) [µM]	GI50 (SR leukemia) [µM]	TGI (SR leukemia) [µM]
CCN(CC)c1ccc2nc3ccc(=[N+](CC)CC)cc-3oc2c1	0.0222 µM	0.86 µM	0.0247 µM	1.2 µM	0.182 µM	2.67 µM	0.115 µM	0.628	0.108 µM	8.12	0.0534 µM	0.329 µM	0.0934 µM	> 100	1.63	9.84	0.786 µM	> 35.3	0.424	> 44.3
O=C1c2ccccc2C(=O)c2c(NC3CCCCC3)ccc(Nc3ccc(S(=O)(=O)O)cc3)c21		53.1 µM		99.8 µM		> 100 µM		58.7		> 100		52.5 µM		83		> 100		> 100		> 100
CCCCCCCCCCCCCCNC(=O)Nc1ccc(Cl)c(Cl)c1	1.81 µM	3.48 µM	2.59 µM	> 40.1 µM	3.27 µM	> 100 µM	1.39 µM	4.59	3.4 µM	> 100	1.66 µM	5.75 µM	2.67 µM	> 37.1	4.01	> 26.3	4.16 µM	> 100		> 23.6
CN(C)c1ccc(-c2cc(-c3ccc(Nc4nc(Nc5ccc(Cl)cc5)nc(Nc5ccc(Cl)cc5)n4)cc3)nc(N)c2C#N)cc1	7.88 µM	> 100 µM	10.6 µM	> 100 µM	8.85 µM	> 100 µM	69.4 µM	> 100	15.4 µM	> 100	48.4 µM	> 100 µM	1.53 µM	7.44	1.96	6.77	> 100 µM	> 100	1.32	9.83
COCCOC1=C(Cl)C(=O)c2ccccc2C1=O	3.63 µM	12.2 µM	1.58 µM	4.87 µM	7.06 µM	25.5 µM	3.08 µM	13.4	3.34 µM	17.3	1.47 µM	2.9 µM	2.18 µM	5.55	3.31	10.2	4.55 µM	16.8	3.17	9.48
COCCN(CCOC)c1nc(-c2ccccc2)nc2ccccc12	28.2 µM	> 100 µM	30.3 µM	> 100 µM			20.2 µM	39.9	20.8 µM	79.2	21.6 µM	52.7 µM	15.1 µM	43.7	34.6	> 100	40.9 µM	> 100	34.4	> 100
C=C(CN1CCc2[nH]c3ccc(F)cc3c2C1)c1ccc(C(=O)Nc2ccccc2N)cc1	2.37 µM	6.66 µM			1.8 µM	31.6 µM	0.389 µM	3.1	3.98 µM	17.2	0.316 µM	1.35 µM	4.32 µM	52.3	0.269	0.949	3.73 µM	21.7	0.795	20.1
CC(=O)Oc1ccc(C2=Cc3ccc(OC(C)=O)cc3OC2C)cc1 (stereo unspecified)	27.9 µM	> 100 µM	0.645 µM	4.86 µM	20.7 µM	> 100 µM			3.35 µM	13.2	3.58 µM	23.1 µM	5.8 µM	> 100	4.11	26.4	14.7 µM	> 100	1.7	9.95
C(=Nc1nc(SCc2ccccc2)nc2[nH]ncc12)c1cccs1	22.2 µM	76.4 µM			38.2 µM	> 100 µM	42.9 µM	> 100	33.2 µM	> 100	59.2 µM	> 100 µM	32.6 µM	> 100	47.1	> 100	26.4 µM	> 100	18.7	65.3
CC[C@H](C)[C@H](NC(=O)[C@H]1CCCCN1C)C(=O)N(C)[C@H](C[C@@H](OC(C)=O)c1nc(C(=O)NC23CC(C(=O)OC)(C2)C3)cs1)C(C)C	0.00152 µM and 0.00325 µM	0.0299 µM and 0.0339 µM	0.000186 µM and < 0.00325 µM	0.000698 µM and < 0.00325 µM	0.000433 µM and 0.00325 µM	0.0103 µM and 0.011 µM	0.00756 µM and 0.0305 µM	> 32.5	0.0007 µM and 0.00325 µM	> 32.5	0.000156 µM and < 0.00325 µM	0.000901 µM and < 0.00325 µM	0.00129 µM and 0.00325 µM	> 32.5			0.00105 µM and 0.00325 µM	> 32.5		> 32.5
O=C(c1cccs1)c1c(C(F)(F)F)n([O-])c2cc(Cl)c(Cl)cc2[n+]1=O	2 µM	4.13 µM	0.362 µM	3.53 µM	0.405 µM	> 100 µM	1.23 µM	2.65	1.39 µM	4.07	0.55 µM	2.2 µM	1.37 µM	2.81	1.79	3.23			< 0.0214	
COc1ccc(-c2[nH]c3ccc(OC)cc3c2C=C(C#N)C#N)cc1	0.288 µM	1.02 µM			0.404 µM	> 100 µM	> 100 µM	> 100	0.463 µM	> 100	> 100 µM	> 100 µM	0.342 µM	> 100	5.48	> 100	> 37 µM	> 100	0.0188	0.116
N#CC(C#N)=C/C=C(\Sc1ccc(Cl)cc1)c1ccc(F)cc1	4.11 µM	> 38.5 µM			2.06 µM	> 51.6 µM	1.6 µM	6.28	2.31 µM	> 100	2.8 µM	> 47.6 µM	0.496 µM	6.19	5.36	> 100	5.67 µM	24.9	0.171	> 100
